Key:
OT-I CTLs = assay: CD8+ T-cell (OT-I CTL) cytotoxicity against antigen-pulsed EL-4 cells, LDH release; type: cell-based, mouse; settings: for cytotoxicity of CD8+ T cells: OT-I CTLs pretreated with compound vs vehicle
Description: To generate mature Cytotoxic T lymphocytes (CTLs), splenocytes isolated from Acat1^CKO-OT-I mice or WT OT-I mice were stimulated with OVA257-264 (N4) for 3 days in the presence of 10 ng/ml IL-2. Cells were centrifuged and cultured in fresh medium containing 10 ng/ml IL-2 for 2 more days, after which most of the cells in the culture were CTLs. To measure CD8^+ T-cell cytotoxicity, EL-4 cells were pulsed with 2 nM antigenic peptide (N4, A2, T4, G4, R4 or Catnb) for 30 minutes. After washing EL-4 cells and CTLs three times with PBS, we mixed CTLs and antigen-pulsed EL-4 cells (1×10^5) in the killing medium (phenol free-RPMI 1640, 2% FBS), at the ratio of 1:1, 1:2 and 1:5, respectively. After 4 hours, the cytotoxic efficiency was measured by quantifying the release of endogenous lactate dehydrogenase (LDH) from EL-4 cells using a CytoTox 96 Non-Radioactive Cytotoxicity kit (Promega).
(§1) CD8^+ T cells were pretreated with vehicle (dimethylsulfoxide, DMSO), CP-113,818 or K604. Then the cells were stimulated with 5 μg ml^−1 plate-bound anti-CD3/CD28, and cytokine and cytolytic granule production was studied. Cytotoxicity of OT-I CTLs pretreated with CP-113,818 or K604 or vehicle was also studied.
To study ACAT1 inhibitors in cancer immunotherapies in mice, melanoma-bearing mice were treated with a potent ACAT-1 inhibitor, avasimibe (Ava), or DMSO control, and tumour size and survival were studied. A combined therapy (avasimibe and anti-PD-1) or monotherapies (avasimibe or anti-PD-1) were also studied and compared in treating melanoma. In a lung cancer model, Lewis lung carcinoma-bearing mice were treated with avasimibe or DMSO control, and tumour multiplicity and survival were studied. Cytokine productions of stimulated human (h) CD8^+ T cells pretreated with avasimibe, CP-113,818, or DMSO. CTL cytotoxicity after avasimibe treatment was measured by the LDH assay. OT-I CTLs were pretreated with avasimibe or vehicle for 6 h and then incubated with EL-4 cells pulsed with OVA257-264 peptide for 4 h.

CD8+ T cells = assay: Cytokine and cytolytic granule production of CD8+ T cells stimulated with plate-bound anti-CD3/CD28; type: cell-based, mouse; settings: pretreated with compound vs vehicle (DMSO); stimulated with 5 μg/ml plate-bound anti-CD3/CD28
Description: Peripheral T cells were isolated from mouse spleen and draining lymph nodes by a CD8^+ or CD4^+ T cell negative selection kit (Stem cell). To analyse the tumour-infiltrating T cells, tumours were first digested by collagenase IV (sigma), and tumour-infiltrating leukocytes were isolated by 40-70% percoll (GE) gradient centrifugation. To measure the effector function of CD8^+ T cells, the isolated cells were first stimulated with 1 μM ionomycin and 50 ng/ml PMA for 4 hours in the presence of 5 μg/ml BFA, and then stained with PERCP-α-CD8a. Next, cells were fixed with 4% PFA and stained with FITC-α-Granzyme B, APC-α-IFNγ and PE-α-TNFα. In general, to gate the cytokine or granule producing cells, T cells without stimulation or stained with isotype control antibody were used as negative controls. This gating strategy is applicable for most of the flow cytometric analyses. To detect the MDSCs (myeloid-derived suppressor cells) in the tumour, the percoll isolated leukocyte were stained with α-CD45, α-CD11b and α-Ly6G (Gr1), the CD45^+ population was gated, after which the MDSC population (CD11b^+ Gr1^+) in CD45^+ were gated.
as §1

[1] = tested on: Lewis lung carcinoma (LLC); assay: Lewis lung carcinoma (LLC) model, avasimibe therapy; type: in vivo, mouse; settings: avasimibe 15 mg/kg intraperitoneally every 3 days, Day 10 to Day 35, vs DMSO control
Description: (§2) A combined therapy (avasimibe and anti-PD-1) or monotherapies (avasimibe or anti-PD-1) were also studied and compared in treating melanoma. In a lung cancer model, Lewis lung carcinoma-bearing mice were treated with avasimibe or DMSO control, and tumour multiplicity and survival were studied. […] CTL cytotoxicity after avasimibe treatment was measured by the LDH assay. OT-I CTLs were pretreated with avasimibe or vehicle for 6 h and then incubated with EL-4 cells pulsed with OVA257-264 peptide for 4 h.

B16F10 melanoma = assay: Skin melanoma mouse model (B16F10), avasimibe therapy; type: in vivo; settings: melanoma-bearing mice; avasimibe 15 mg/kg intraperitoneally every 2 days from Day 10, vs DMSO control
Description: as §2

[2] = cited from earlier work
human CD8+ T cells = assay: Human CD8+ T-cell cytokine production; type: cell-based; settings: PBMCs pretreated 12 hours, then plate-bound α-CD3/α-CD28 for 24 hours; vs DMSO
Description: Human peripheral blood mononuclear cells (PBMCs) from healthy donators were stimulated with 5 μg/ml PHA (Sigma) for 2 days and then rested for 1 day. Cells were pretreated with vehicle (DMSO), CP113, 818 or avasimibe for 12 hours and then stimulated with plate-bound α-CD3 (5 μg/ml) and α-CD28 (5 μg/ml) antibodies for 24 hours. Intracellular staining and flow cytometry were used to assess cytokines production of CD8^+ T cells. […] A combined therapy (avasimibe and anti-PD-1) or monotherapies (avasimibe or anti-PD-1) were also studied and compared in treating melanoma. In a lung cancer model, Lewis lung carcinoma-bearing mice were treated with avasimibe or DMSO control, and tumour multiplicity and survival were studied. […] CTL cytotoxicity after avasimibe treatment was measured by the LDH assay. OT-I CTLs were pretreated with avasimibe or vehicle for 6 h and then incubated with EL-4 cells pulsed with OVA257-264 peptide for 4 h.

CCCCCCCC[C@H](SCCCCCC)C(=O)Nc1c(SC)cc(C)nc1SC [CP-113,818, (S)—N-(2,4-Bis(methylthio)-6-methylpyridin-3-yl)-2-(hexylthio)decanoic acid amide]
cytotoxicity of CD8+ T cells (OT-I CTLs): augmented | cytolytic granule and cytokine productions of CD8+ T cells (CD8+ T cells): augmented

CSc1cc(C)nc(SC)c1NC(=O)CN1CCN(CCSc2nc3ccccc3[nH]2)CC1 [K604, 2-[4-[2-(benzimidazol-2-ylthio)ethyl]piperazin-1yl]-N-[2,4-bis(methylthio)-6-methyl-3-pyridyl]acetamide]
cytotoxicity of CD8+ T cells (OT-I CTLs): augmented | cytolytic granule and cytokine productions of CD8+ T cells (CD8+ T cells): augmented

CC[C@H](C)C(=O)O[C@H]1C[C@@H](C)C=C2C=C[C@H](C)[C@H](CC[C@@H]3C[C@@H](O)CC(=O)O3)[C@H]21 [Lovastatin]
cytolytic granule and cytokine productions of CD8+ T cells (CD8+ T cells): significantly decreased

CCN(CC)CCO[C@H]1CC[C@@]2(C)C(=CC[C@@H]3[C@@H]2CC[C@]2(C)C(=O)CC[C@@H]32)C1 [U18666A]
cytolytic granule and cytokine productions of CD8+ T cells (CD8+ T cells): significantly decreased

CC(C)c1cc(C(C)C)c(CC(=O)NS(=O)(=O)Oc2c(C(C)C)cccc2C(C)C)c(C(C)C)c1 [avasimibe, [2,6-di(propan-2-yl)phenyl] N-[2-[2,4,6-tri(propan-2-yl)phenyl]acetyl]sulfamate]
antitumor effect in Lewis lung carcinoma (tumour multiplicity and survival) [1]: good antitumor effect | survival time (B16F10 melanoma): prolonged | tumour growth (B16F10 melanoma): inhibited | effector function of mouse CD8+ T cells ex vivo (OT-I CTLs; OT-I CTLs pretreated with avasimibe or vehicle for 6 h, EL-4 cells pulsed with OVA257-264 for 4 h, LDH assay): enhance | well tolerated dose ([2]; adult human subjects, four times daily (i.e., 3000 mg/day), Kharbanda et al (2005)): ≥ 750 mg | human safety profile ([2]; clinical trials for treating atherosclerosis): good human safety profile | cytokine production of human CD8+ T cells (human CD8+ T cells): enhanced
